Measurements reported in the supplement of paper PMC10331698.
± gives the standard deviation of the averaged measurements.

Assays:
Experiment in all cases: level (log10 ratio to DMSO vehicle control); higher = higher biomarker level / cell amount than vehicle control
[1] = compound: OCC(F)(F)C(F)(F)C(F)(F)C(F)(F)C(F)(F)C(F)(F)F [6:1 Fluorotelomer alcohol]; conditions: in DMSO
Protocol: (§1)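 BioMAP Diversity Plus panel of 12 human primary cell co-culture systems (3C, 4H, LPS, SAg, BT, BF4T, BE3C, CASM3C, HDF3CGF, KF3CT, MyoF, Mphg). Compounds were added 1 h before stimulation and left for 24 h (MyoF 48 h; BT 72 h for soluble read-outs or 6 d for IgG). Biomarkers were read by ELISA, cytotoxicity by SRB, PBMC viability and proliferation by Alamar Blue. Each well value was divided by the mean of 8 DMSO control wells on the same plate and log10 transformed; duplicate blinded samples were tested at 4 concentrations.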

[2] = compound: OCC(F)(F)C(F)(F)C(F)(F)C(F)(F)C(F)(F)C(F)(F)C(F)(F)C(F)(F)CO [1H,1H,10H,10H-Perfluorodecane-1,10-diol]; conditions: in DMSO
Protocol: as §1

[3] = compound: O=S(=O)(O)CCC(F)(F)C(F)(F)C(F)(F)C(F)(F)F [4:2 Fluorotelomer sulfonic acid]; conditions: in DMSO
Protocol: as §1

[4] = compound: O=C(O)C(F)(F)C(F)(F)C(=O)O [Tetrafluorosuccinic acid]; conditions: in DMSO
Protocol: as §1

[5] = compound: C=C(C)C(=O)OCC(F)(F)C(F)(F)C(F)(F)F [2,2,3,3,4,4,4-Heptafluorobutyl methacrylate]; conditions: in DMSO
Protocol: as §1

[6] = compound: O=S(=O)(OCC(F)(F)F)C(F)(F)C(F)(F)C(F)(F)C(F)(F)F [2,2,2-Trifluoroethyl perfluorobutanesulfonate]; conditions: in DMSO
Protocol: as §1

[7] = compound: OCCC(F)(F)C(F)(F)C(F)(F)C(F)(F)C(F)(F)C(F)(F)C(F)(F)C(F)(F)F [8:2 Fluorotelomer alcohol]; conditions: 6700 nM; in DMSO
Protocol: as §1

| Test System | level (log10) ([1]; 6700 nM) | level (log10) ([1]; 20000 nM) | level (log10) ([1]; 60000 nM) | level (log10) ([2]; 6700 nM) | level (log10) ([2]; 20000 nM) | level (log10) ([2]; 60000 nM) | level (log10) ([3]; 6700 nM) | level (log10) ([3]; 20000 nM) | level (log10) ([3]; 60000 nM) | level (log10) ([4]; 6700 nM) | level (log10) ([4]; 20000 nM) | level (log10) ([4]; 60000 nM) | level (log10) ([5]; 6700 nM) | level (log10) ([5]; 20000 nM) | level (log10) ([5]; 60000 nM) | level (log10) ([6]; 6700 nM) | level (log10) ([6]; 20000 nM) | level (log10) ([6]; 60000 nM) | level (log10) [7] |
| --- | --- | --- | --- | --- | --- | --- | --- | --- | --- | --- | --- | --- | --- | --- | --- | --- | --- | --- | --- |
| HDF3CGF:M-CSF | 0 ± 0.02 | 0.0355 ± 0.0092 | -0.225 ± 0.03 | 0.0095 ± 0.035 | 0.001 ± 0.038 | -0.304 | -0.038 ± 0.05 | -0.062 ± 0.05 | -0.0835 ± 0.019 | -0.0505 ± 0.018 | -0.0735 ± 0.0035 | -0.048 ± 0.0099 | 0.0085 ± 0.00071 | 0.0255 ± 0.0078 | 0.0135 ± 0.029 | -0.009 ± 0.0057 | 0.0105 ± 0.022 | 0.0195 ± 0.005 | -0.044 ± 0.028 |
| KF3CT:SRB | -0.0035 ± 0.0064 | -0.0025 ± 0.0035 | -0.004 ± 0.0028 | -0.0155 ± 0.015 | -0.022 ± 0.011 | -0.25 | -0.0015 ± 0.0021 | -0.0015 ± 0.0021 | 0.0035 ± 0.0092 | -0.012 | -0.0005 ± 0.0078 | 0.001 ± 0.0042 | 0.0025 ± 0.0021 | 0.0045 ± 0.011 | -0.0075 ± 0.00071 | -0.001 | -0.0045 ± 0.0021 | -0.0025 ± 0.0092 | 0.0075 ± 0.0064 |
| CASM3C:M-CSF | -0.013 ± 0.0042 | -0.013 ± 0.037 | -0.0855 ± 0.023 | -0.052 ± 0.027 | -0.054 ± 0.014 | -0.065 | -0.0265 ± 0.011 | -0.02 ± 0.0028 | 0.001 ± 0.03 | -0.008 ± 0.035 | -0.015 ± 0.016 | 0.0095 ± 0.033 | 0.003 ± 0.016 | 0.0245 ± 0.019 | 0.024 ± 0.0099 | -0.011 ± 0.0057 | 0.004 ± 0.0042 | 0.0365 ± 0.03 | -0.0135 ± 0.012 |
| MyoF:PAI-I | 0.0015 ± 0.0078 | -0.006 ± 0.0042 | 0.0025 ± 0.019 | -0.0155 ± 0.005 | -0.008 ± 0.0042 | -0.005 | -0.0015 ± 0.00071 | 0.0055 ± 0.0035 | 0.0055 ± 0.012 | 0.009 ± 0.0057 | 0.01 ± 0.017 | 0.004 ± 0.014 | -0.001 ± 0.0085 | 0.008 ± 0.0085 | 0.015 ± 0.0014 | -0.0115 ± 0.0092 | -0.011 ± 0.018 | -0.0065 ± 0.018 | -0.004 ± 0.018 |
| CASM3C:CD87/uPAR | -0.004 ± 0.0071 | -0.0245 ± 0.00071 | -0.026 ± 0.035 | -0.024 ± 0.016 | -0.033 ± 0.031 | -0.116 | 0 ± 0.027 | 0.0025 ± 0.0078 | -0.0165 ± 0.037 | -0.01 ± 0.021 | -0.024 ± 0.013 | -0.0185 ± 0.0021 | -0.018 ± 0.0099 | -0.0235 ± 0.029 | -0.018 ± 0.0028 | -0.047 ± 0.064 | -0.0215 ± 0.059 | -0.048 ± 0.033 | -0.018 ± 0.054 |
| BE3C:PAI-I | -0.0235 ± 0.0092 | -0.007 ± 0.0014 | 0.026 ± 0.011 | 0.041 ± 0.0085 | -0.0655 ± 0.0035 | -0.192 | -0.0075 ± 0.0035 | -0.014 ± 0.0085 | -0.008 ± 0.017 | -0.011 ± 0.0071 | 0.002 ± 0.018 | -0.001 ± 0.023 | -0.0505 ± 0.043 | -0.003 ± 0.055 | 0.017 ± 0.064 | -0.0005 ± 0.011 | 0.003 ± 0.0085 | 0.014 ± 0.011 | -0.055 ± 0.021 |
| KF3CT:MMP-9 | -0.018 ± 0.0028 | -0.0315 ± 0.0021 | 0.002 ± 0.0028 | 0.005 ± 0.03 | 0.0465 ± 0.00071 | -0.197 | 0.0075 ± 0.012 | -0.011 ± 0.037 | 0.023 ± 0.0057 | -0.0305 ± 0.018 | -0.024 ± 0.031 | -0.0085 ± 0.035 | -0.029 | -0.0115 ± 0.00071 | 0.0085 ± 0.0092 | -0.012 ± 0.017 | -0.016 ± 0.035 | -0.001 ± 0.025 | -0.09 ± 0.027 |
| KF3CT:TIMP-2 | -0.0025 ± 0.005 | 0.0035 ± 0.0021 | 0.008 ± 0.017 | -0.001 ± 0.011 | 0.011 ± 0.0099 | -0.133 | -0.0215 ± 0.023 | -0.0185 ± 0.042 | -0.0025 ± 0.0064 | 0 ± 0.0071 | 0.0365 ± 0.005 | 0.027 ± 0.024 | -0.004 ± 0.016 | -0.0165 ± 0.00071 | -0.0035 ± 0.012 | -0.049 ± 0.0057 | -0.0215 ± 0.049 | -0.0495 ± 0.00071 | -0.0175 ± 0.026 |
| KF3CT:CXCL10/IP-10 | 0.0155 ± 0.0035 | 0.0055 ± 0.015 | 0.011 | -0.006 ± 0.0042 | -0.0195 ± 0.0078 | -0.104 | -0.007 ± 0.0028 | -0.0145 ± 0.011 | -0.0115 ± 0.0092 | -0.006 ± 0.0028 | -0.0055 ± 0.0064 | -0.0075 ± 0.00071 | 0.0055 ± 0.00071 | -0.001 ± 0.0057 | 0.0085 ± 0.005 | 0.0345 ± 0.022 | 0.033 ± 0.041 | 0.031 ± 0.042 | -0.0355 ± 0.018 |
| lMphg:CCL2/MCP-1 | -0.016 ± 0.0028 | -0.046 ± 0.023 | -0.02 ± 0.0071 | -0.0125 ± 0.016 | -0.0145 ± 0.005 | -0.653 | 0.0005 ± 0.047 | 0.006 ± 0.025 | -0.001 ± 0.0071 | -0.03 ± 0.016 | -0.0195 ± 0.012 | 0.0005 ± 0.042 | -0.0335 ± 0.028 | -0.012 ± 0.0099 | -0.0115 ± 0.028 | -0.0115 ± 0.021 | -0.0245 ± 0.022 | -0.0405 ± 0.0035 | 0.0165 ± 0.019 |
| HDF3CGF:EGFR | 0.009 ± 0.041 | 0.0125 ± 0.019 | -0.0555 ± 0.035 | -0.0015 ± 0.015 | 0.003 ± 0.023 | -0.224 | -0.0575 ± 0.093 | -0.042 ± 0.054 | -0.019 ± 0.079 | -0.0065 ± 0.033 | -0.008 ± 0.0028 | 0.029 ± 0.038 | -0.018 ± 0.09 | -0.0115 ± 0.057 | -0.064 ± 0.041 | -0.0215 ± 0.077 | -0.022 ± 0.09 | 0.047 ± 0.03 | 0.037 ± 0.0085 |
| KF3CT:IL-1alpha | -0.005 ± 0.02 | 0.0195 ± 0.021 | 0.007 ± 0.0071 | 0.005 ± 0.027 | -0.01 ± 0.021 | 0.109 | -0.0155 ± 0.0021 | -0.0355 ± 0.0078 | -0.021 ± 0.021 | -0.012 ± 0.0042 | -0.0385 ± 0.019 | 0.007 ± 0.023 | -0.005 ± 0.0071 | -0.007 ± 0.014 | -0.0005 ± 0.016 | -0.011 ± 0.03 | -0.003 ± 0.011 | 0.0195 ± 0.0078 | -0.0545 ± 0.029 |
| HDF3CGF:Collagen I | -0.01 ± 0.0085 | -0.0005 ± 0.005 | 0.0145 ± 0.039 | 0.029 ± 0.0014 | -0.01 ± 0.025 | 0.035 | -0.0015 ± 0.054 | -0.007 ± 0.0057 | 0.0385 ± 0.018 | -0.0515 ± 0.025 | -0.0235 ± 0.018 | -0.0305 ± 0.029 | -0.0145 ± 0.0021 | -0.0495 ± 0.064 | 0.016 ± 0.033 | -0.0325 ± 0.016 | -0.0635 ± 0.04 | -0.047 ± 0.028 | -0.022 ± 0.0042 |
| BE3C:SRB | -0.0015 ± 0.005 | -0.0055 ± 0.0021 | 0.002 ± 0.011 | -0.003 | -0.0105 ± 0.00071 | -0.024 | 0.0015 ± 0.00071 | -0.007 ± 0.0085 | 0.0005 ± 0.0078 | -0.0045 ± 0.005 | -0.0045 ± 0.0064 | -0.001 ± 0.0028 | -0.003 ± 0.011 | -0.0095 ± 0.0064 | -0.001 ± 0.0071 | 0 ± 0.0071 | 0.004 ± 0.0042 | 0.005 | -0.0075 ± 0.0021 |
| CASM3C:IL-6 | -0.008 ± 0.025 | -0.0165 ± 0.042 | -0.0005 ± 0.0021 | -0.045 ± 0.027 | -0.071 ± 0.025 | -0.059 | 0.0015 ± 0.0092 | -0.0065 ± 0.0078 | 0.001 ± 0.028 | -0.0165 ± 0.015 | -0.0295 ± 0.0078 | -0.0015 ± 0.036 | 0.004 ± 0.031 | 0.0105 ± 0.028 | 0.022 ± 0.0071 | -0.02 ± 0.033 | -0.0685 ± 0.0078 | -0.029 ± 0.024 | -0.015 ± 0.014 |
